# Results reported in patent US6951655B2, “Pro-micelle pharmaceutical compositions” (IMI Biomed, Inc., priority 2001, dated 2005).
# Columns and labels:
# rabbits [1] = assay: Blood glucose in rabbits after i.p. administration before glucose challenge; type: in vivo, rabbit; conditions: i.p. 15 minutes before glucose challenge of 250 mg/kg, FIG. 10
# Protocol: FIG. 10 depicts blood glucose when a standard regular insulin solution (0.3 ml of 3.1 IU/ml) or an extraction of the pro-micelle (2.5 ml of 0.4 IU/ml) was administered intraperitonally (i.p.) to rabbits 15 minutes before a glucose challenge of 250 mg/kg.
# rabbits [2] = assay: Blood glucose in rabbits after i.v. injection before glucose challenge; type: in vivo, rabbit
# Protocol: FIG. 11 depicts blood glucose levels when a standard regular insulin (0.2 ml of 3.1 IU/ml) or an extraction of the pro-micelle (1.5 ml. of 0.4 IU/ml) was intravenously (i.v.) injected into rabbits one minute before a glucose challenge of 250 mg/kg. […] With the formulation of the invention, a hypoglycemic effect was noticed within 35 minutes, and lasted for the duration of the experiment of 120 minutes or more.
substance,measurement,setting,value
"standard regular insulin: Standard regular insulin solution, 3.1 IU/ml, comparator",effect on blood sugar after i.p. injection,rabbits [1],decreased blood sugar
same,duration of hypoglycemic effect,rabbits [2]; i.v.,short in duration
same,blood glucose course after i.v. injection,"rabbits [2]; i.v. one minute before glucose challenge of 250 mg/kg, FIG. 11",rapidly decreased from 20 to 45 minutes
same,blood glucose relative to control level within 90 minutes of injection,"rabbits [2]; i.v., within 90 minutes of the insulin injection",10-30 % of the control level
